Results published in paper PMC4468608, “A distinct p53 target gene set predicts for response to the selective p53–HDM2 inhibitor NVP-CGM097” (eLife, 2015).
Where two headings read alike, the source gives them in different places.

Test system: cell lines from the Cancer Cell Line Encyclopedia (CCLE)
Assay: High-throughput cell viability assay, CCLE cell line panel (n = 356)
Type: cell-based, human
Settings: Homo sapiens
Method: Cell lines were partitioned into sensitive and insensitive groups based on compound potency (IC50). […] All other cell lines were obtained from ATCC (American Type Culture Collection), DSMZ (Deutsche Sammlung von Mikroorganismen und Zellkulturen), and HSRRB (Health Science Research Resources Bank) and cultured in RPMI or Dulbecco's modified Eagle's medium plus 10% FBS (Invitrogen, Carlsbad, CA) at 37°C, 5% CO2.

COc1cc2c(cc1OC(C)C)[C@H](c1ccc(Cl)cc1)N(c1ccc(N(C)C[C@H]3CC[C@H](N4CCNC(=O)C4)CC3)cc1)C(=O)C2 [NVP-CFC218]
IC50 (LOX IMVI, TP53 WT): > 8 µM | IC50 (LP-1, TP53 MUT): 7.24 µM | IC50 (LS-1034, LS1034, TP53 MUT): > 8 µM | IC50 (LUDLU-1, LUDLU-1, TP53 MUT): > 8 µM | IC50 (Loucy, TP53 MUT): 7.62 µM | IC50 (Lu-65, LU65, TP53 MUT): > 8 µM | IC50 (Lu-99, LU99, TP53 WT): 2.71 µM | IC50 (MC116, MC116, TP53 MUT): 5.21 µM | IC50 (MDA-MB-415, MDA-MB-415, TP53 MUT): 7.62 µM | IC50 (MDA-MB-453, MDA-MB-453, TP53 WT): > 8 µM | IC50 (MDA-MB-468, MDA-MB-468, TP53 MUT): > 8 µM | IC50 (MEG-01, MEG-01, TP53 MUT): > 8 µM | IC50 (MFE-280, MFE-280, TP53 MUT): 6.92 µM | IC50 (MFE-296, MFE-296, TP53 MUT): > 8 µM | IC50 (MFE-319, TP53 MUT): > 8 µM | IC50 (MG-63, MG-63, TP53 WT): > 8 µM | IC50 (MHH-ES-1, read-out: NVP- CFC218 IC50 (µM), cell line MHH-ES-1, bone, TP53 MUT): > 8 µM | IC50 (MIA PaCa-2, MIA PaCa-2, TP53 MUT): > 8 µM | IC50 (MKN-74, MKN74, TP53 MUT): > 8 µM | IC50 (MOG-G-CCM, TP53 MUT): > 8 µM | IC50 (MOG-G-UVW, TP53 WT): > 8 µM | IC50 (MOLM16, MOLM-16, TP53 MUT): > 8 µM | IC50 (MOLM-13, MOLM-13, TP53 WT): 0.69 µM | IC50 (MOR/CPR, TP53 MUT): > 8 µM | IC50 (MPP 89, TP53 WT): > 8 µM | IC50 (Malme-3M, read-out: NVP- CFC218 IC50 (µM), cell line Malme-3M, skin, TP53 WT): > 8 µM | IC50 (MeWo, TP53 MUT): > 8 µM | IC50 (Mono-Mac-1, MONO-MAC-1, TP53 MUT): > 8 µM | IC50 (NALM-6, NALM-6, TP53 WT): 1.16 µM | IC50 (NB-4, TP53 MUT): > 8 µM | IC50 (NCI-H23, NCI-H23, TP53 MUT): > 8 µM | IC50 (NCI-H211, NCI-H211, TP53 MUT): > 8 µM | IC50 (NCI-H358, NCI-H358, TP53 WT): > 8 µM | IC50 (NCI-H441, NCI-H441, TP53 MUT): > 8 µM | IC50 (NCI-H460, read-out: NVP- CFC218 IC50 (µM), cell line NCI-H460, lung, TP53 WT): > 8 µM | IC50 (NCI-H520, NCI-H520, TP53 MUT): > 8 µM | IC50 (NCI-H647, read-out: NVP- CFC218 IC50 (µM), cell line NCI-H647, lung, TP53 MUT): > 8 µM | IC50 (NCI-H650, NCI-H650, TP53 MUT): > 8 µM | IC50 (NCI-H747, NCI-H747, TP53 MUT): > 8 µM | IC50 (NCI-H810, NCI-H810, TP53 MUT): > 8 µM | IC50 (NCI-H889, NCI-H889, TP53 MUT): > 8 µM | IC50 (NCI-H1299, read-out: NVP- CFC218 IC50 (µM), cell line NCI-H1299, lung, TP53 WT): > 8 µM | IC50 (NCI-H1355, NCI-H1355, TP53 MUT): > 8 µM | IC50 (NCI-H1373, NCI-H1373, TP53 MUT): > 8 µM | IC50 (NCI-H1435, NCI-H1435, TP53 MUT): > 8 µM | IC50 (NCI-H1573, NCI-H1573, TP53 MUT): > 8 µM | IC50 (NCI-H1581, NCI-H1581, TP53 MUT): > 8 µM | IC50 (NCI-H1648, NCI-H1648, TP53 MUT): > 8 µM | IC50 (NCI-H1650, read-out: NVP- CFC218 IC50 (µM), cell line NCI-H1650, lung, TP53 MUT): > 8 µM | IC50 (NCI-H1651, NCI-H1651, TP53 MUT): > 8 µM | IC50 (NCI-H1666, NCI-H1666, TP53 WT): 0.88 µM | IC50 (NCI-H1693, read-out: NVP- CFC218 IC50 (µM), cell line NCI-H1693, lung, TP53 MUT): > 8 µM | IC50 (NCI-H1703, read-out: NVP- CFC218 IC50 (µM), cell line NCI-H1703, lung, TP53 MUT): > 8 µM | IC50 (NCI-H1734, NCI-H1734, TP53 MUT): > 8 µM | IC50 (NCI-H1792, NCI-H1792, TP53 MUT): > 8 µM | IC50 (NCI-H1915, NCI-H1915, TP53 MUT): > 8 µM | IC50 (NCI-H1944, NCI-H1944, TP53 WT): 6.39 µM | IC50 (NCI-H1975, NCI-H1975, TP53 MUT): > 8 µM | IC50 (NCI-H2009, NCI-H2009, TP53 MUT): > 8 µM | IC50 (NCI-H2052, NCI-H2052, TP53 WT): 3.36 µM | IC50 (NCI-H2087, NCI-H2087, TP53 MUT): > 8 µM | IC50 (NCI-H2110, NCI-H2110, TP53 MUT): > 8 µM | IC50 (NCI-H2122, NCI-H2122, TP53 MUT): 1.9 µM | IC50 (NCI-H2172, NCI-H2172, TP53 WT): > 8 µM | IC50 (NCI-H2196, NCI-H2196, TP53 MUT): > 8 µM | IC50 (NCI-H2347, NCI-H2347, TP53 WT): > 8 µM | IC50 (NCI-H2444, NCI-H2444, TP53 MUT): > 8 µM | IC50 (NCI-H2452, NCI-H2452, TP53 WT): > 8 µM | IC50 (NCO2, TP53 MUT): > 8 µM | IC50 (OAW-42, read-out: NVP- CFC218 IC50 (µM), cell line OAW42, ovary, TP53 WT): > 8 µM | IC50 (OC 316, TP53 MUT): > 8 µM | IC50 (OCI-AML2, OCI-AML2, TP53 WT): 2.38 µM | IC50 (OCI-Ly10, OCI-LY10, TP53 MUT): > 8 µM | IC50 (OCI-M1, OCI-M1, TP53 MUT): > 8 µM | IC50 (OE19, read-out: NVP- CFC218 IC50 (µM), cell line OE19, oesophagus, TP53 MUT): > 8 µM | IC50 (OE33, OE33, TP53 MUT): > 8 µM | IC50 (ONS-76, ONS-76, TP53 WT): > 8 µM | IC50 (OPM-2, OPM-2, TP53 MUT): > 8 µM | IC50 (OV-90, OV-90, TP53 MUT): > 8 µM | IC50 (OVCAR-3, NIH:OVCAR-3, TP53 MUT): > 8 µM | IC50 (OVCAR-4, OVCAR-4, TP53 MUT): > 8 µM | IC50 (OVCAR-8, read-out: NVP- CFC218 IC50 (µM), cell line OVCAR-8, ovary, TP53 MUT): > 8 µM | IC50 (OVSAHO, TP53 MUT): > 8 µM | IC50 (P3HR-1, P3HR-1, TP53 MUT): > 8 µM | IC50 (P12-Ichikawa, TP53 MUT): 2.5 µM | IC50 (P31-FUJ, P31/FUJ, TP53 MUT): > 8 µM
